Results published in patent publication US11560374B2, “Morpholinylpyridone compounds” (Sprint Bioscience AB, priority 2017, dated 2023).

Assays:
Vps34 enzyme = Vps34 enzyme (Homo sapiens (Human), UniProt Q8NEB9); assay: Vps34 Biochemical Assay (Adapta kinase assay); conditions: 20 μM ATP and 200 μM PI:PS substrate mix, 1 h at room temperature, TR-FRET, read-out: Median IC50 nM Adapta
Protocol: Dilution series of compounds of the invention were prepared in DMSO at 100 times the final assay concentration (n1=n0/3 in 10 points). The compounds were further diluted to 4 times the assay concentration in assay buffer (Life technologies buffer Q, PV5125, diluted 5 times supplemented with 2 mM DTT and 2 mM MnCl2). 2.5 μl of the diluted compounds were added to a 384 well assay plate followed by 2.5 μl of 16.5 nM Vps34 enzyme (Life technologies, PV5126). Enzyme and compounds were pre-incubated at rt for 15 min. Then 5 μl of substrate mix containing 20 μM ATP (Life technologies, PV3227) and 200 μM PI:PS substrate (Life technologies, PV5122) in assay buffer was added to the wells containing compound and enzyme. Mixing was performed by pipetting several times. The reaction was incubated at room temperature for 1 h. Then 5 μl stop-detection mix, prepared as described in the Adapta kinase assay kit instructions (Life technologies, PV5099) containing Adapta Eu-anti-ADP antibody (2.3 nM), Alexa Fluor 647 ADP tracer (9 nM) and EDTA (30 mM) in TR-FRET buffer, was added to quench the reaction. Mixing was performed by pipetting several times. The assay plate was then incubated at room temperature for 30 min and read with Artemis micro plate reader. Percent inhibition of the compounds as compared to DMSO treated control samples was calculated. By the use of Dotmatics software compound concentration versus percent inhibition was fitted to generate IC50 values.

[1] = system: autophagy in HOS cells (GFP-LC3); assay: High Content Screening Autophagy Assay (GFP-LC3 foci); format: cell-based; conditions: Homo sapiens; HOS cells expressing GFP-LC3; autophagy activated with KU-0063794 500 nM and Bafilomycin A1 5 nM; 6 hours; foci area per cell; read-out: Median IC50 nM Cellular assay (HOS-LC3)
Protocol: Human osteosarcoma cells (HOS) stably expressing a Green Fluorescent Protein (GFP) tagged LC3 (GFP-LC3) were used to determine the inhibitory effect on autophagy of proprietary compounds. For that purpose, autophagy was activated by using the mTOR inhibitor KU-0063794 at 500 nM in the presence of Bafilomycin A1 (Sigma-Aldrich) at 5 nM. Shortly, cells were plated overnight in clear bottom 96-well plates in DMEM-High Modified media (Hi-Clone Cat #SH30285.01). At the start of the experiment, the media was removed and replaced with fresh media containing the mTOR inhibitor, Bafilomycin A1 and the vehicle or a test compound as indicated. After 6 hours the media was removed, cells were washed twice with ice-cold phosphate buffered saline (PBS) and fixed with 4% paraformaldehyde for 20 minutes at room temperature. Then the cells were washed twice with ice-cold PBS before adding Hoechst 33342 at 1 μg/ml in PBS for nuclear staining. After incubation overnight at 4° C., cells were washed once with PBS to remove the excess of dye and 100 μl of PBS was added to each well. Images were acquired at 20× magnification, 6 images per well, using the ImageXpress automated microscope (Molecular Devices Inc.) and analyzed with MetaXpress software to identify LC3-GFP foci. Foci area per cell values were used to generate dose response curves and IC50 values were calculated using the non-linear fitting analysis in GraphPad Prism software. […] The results of the assay are shown in Table 2 (Median IC50 nM HOS-LC3).

Vps34 enzyme, sequence (Q8NEB9 whole entry): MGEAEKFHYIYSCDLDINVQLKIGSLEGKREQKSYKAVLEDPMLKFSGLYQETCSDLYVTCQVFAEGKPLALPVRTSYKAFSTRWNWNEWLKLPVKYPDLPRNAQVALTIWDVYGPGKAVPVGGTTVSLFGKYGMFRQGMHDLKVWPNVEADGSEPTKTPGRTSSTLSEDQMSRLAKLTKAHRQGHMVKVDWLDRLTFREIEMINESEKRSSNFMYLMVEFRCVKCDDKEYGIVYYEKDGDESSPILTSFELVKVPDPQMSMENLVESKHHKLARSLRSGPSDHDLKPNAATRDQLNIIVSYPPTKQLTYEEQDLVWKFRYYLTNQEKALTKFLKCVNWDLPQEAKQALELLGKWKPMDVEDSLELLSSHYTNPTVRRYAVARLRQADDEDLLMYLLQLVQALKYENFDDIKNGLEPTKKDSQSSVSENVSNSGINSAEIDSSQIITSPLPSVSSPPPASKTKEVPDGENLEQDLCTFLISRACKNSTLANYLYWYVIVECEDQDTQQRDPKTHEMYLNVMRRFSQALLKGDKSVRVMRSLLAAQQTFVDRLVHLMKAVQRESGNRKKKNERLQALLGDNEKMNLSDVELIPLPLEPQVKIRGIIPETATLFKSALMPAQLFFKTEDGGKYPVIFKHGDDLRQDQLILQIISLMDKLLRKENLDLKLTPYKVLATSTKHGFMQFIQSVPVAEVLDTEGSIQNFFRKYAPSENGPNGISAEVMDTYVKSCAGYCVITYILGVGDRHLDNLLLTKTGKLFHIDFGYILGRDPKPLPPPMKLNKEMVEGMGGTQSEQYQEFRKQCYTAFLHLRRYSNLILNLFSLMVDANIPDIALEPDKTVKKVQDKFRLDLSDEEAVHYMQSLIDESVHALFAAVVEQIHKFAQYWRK

IC50 (Vps34 enzyme) [nM]	IC50 [1] [nM]	Structure (SMILES)
< 5	33	C[C@@H]1COCCN1c1cc(N2CCN(S(C)(=O)=O)CC2C(F)(F)F)[nH]c(=O)c1 (single isomer, unassigned) [Example 6-1]
15		C[C@@H]1COCCN1c1cc(N2CCN(S(C)(=O)=O)CC2C(F)(F)F)[nH]c(=O)c1 (single isomer, unassigned) [Example 6-2]
< 5	12	C[C@@H]1COCCN1c1cc(N2CCN(S(=O)(=O)Cc3ccc(F)cc3)CC2C(F)(F)F)[nH]c(=O)c1 (stereo partly drawn) [Example 8, 6-[4-[(4-Fluorophenyl)methylsulfonyl]-2-(trifluoromethyl)piperazin-1-yl]-4-[(3R)-3-methylmorpholin-4-yl]-1H-pyridin-2-one]
< 5	106	C[C@@H]1COCCN1c1cc(N2CCN(S(=O)(=O)c3cncc(F)c3)CC2C(F)(F)F)[nH]c(=O)c1 (stereo partly drawn) [Example 10, 6-[4-[(5-Fluoro-3-pyridyl)sulfonyl]-2-(trifluoromethyl)piperazin-1-yl]-4-[(3R)-3-methylmorpholin-4-yl]-1H-pyridin-2-one]
< 5	55	C[C@@H]1COCCN1c1cc(N2CCN(S(=O)(=O)C3CCOC3)CC2C(F)(F)F)[nH]c(=O)c1 (stereo partly drawn) [Example 12, 4-[(3R)-3-methylmorpholin-4-yl]-6-[4-tetrahydrofuran-3-ylsulfonyl-2-(trifluoromethyl)piperazin-1-yl]-1H-pyridin-2-one]
< 5		C[C@@H]1COCCN1c1cc(N2CCN(S(=O)(=O)N3CCCC3)CC2C(F)(F)F)[nH]c(=O)c1 (stereo partly drawn) [Example 14, 4-[(3R)-3-methylmorpholin-4-yl]-6-[4-pyrrolidin-1-ylsulfonyl-2-(trifluoromethyl)piperazin-1-yl]-1H-pyridin-2-one]
< 5	17	C[C@@H]1COCCN1c1cc(N2CCN(S(=O)(=O)N(C)C)CC2C(F)(F)F)[nH]c(=O)c1 (stereo partly drawn) [Example 16, N,N-dimethyl-4-[4-[(3R)-3-methylmorpholin-4-yl]-6-oxo-1H-pyridin-2-yl]-3-(trifluoromethyl)piperazine-1-sulfonamide]
< 5	83	COCCS(=O)(=O)N1CCN(c2cc(N3CCOC[C@H]3C)cc(=O)[nH]2)C(C(F)(F)F)C1 (stereo partly drawn) [Example 18, 6-[4-(2-Methoxyethylsulfonyl)-2-(trifluoromethyl)piperazin-1-yl]-4-[(3R)-3-methylmorpholin-4-yl]-1H-pyridin-2-one]
< 5	223	C[C@@H]1COCCN1c1cc(N2CCN(S(=O)(=O)c3ccc(F)cc3)CC2C(F)(F)F)[nH]c(=O)c1 (stereo partly drawn) [Example 20, 6-[4-(4-Fluorophenyl)sulfonyl-2-(trifluoromethyl)piperazin-1-yl]-4-[(3R)-3-methylmorpholin-4-yl]-1H-pyridin-2-one]
	95	C[C@@H]1COCCN1c1cc(N2CCN(S(=O)(=O)c3ccnn3C)CC2C(F)(F)F)[nH]c(=O)c1 (stereo partly drawn) [Example 22, 4-[(3R)-3-methylmorpholin-4-yl]-6-[4-(2-methylpyrazol-3-yl)sulfonyl-2-(trifluoromethyl)piperazin-1-yl]-1H-pyridin-2-one]
	28	C[C@@H]1COCCN1c1cc(N2CCN(S(=O)(=O)C3CC3)CC2C(F)(F)F)[nH]c(=O)c1 (stereo partly drawn) [Example 24, 6-[4-Cyclopropylsulfonyl-2-(trifluoromethyl)piperazin-1-yl]-4-[(3R)-3-methylmorpholin-4-yl]-1H-pyridin-2-one]
< 5	139	C[C@@H]1COCCN1c1cc(N2CCN(S(=O)(=O)N3CCCCC3)CC2C(F)(F)F)[nH]c(=O)c1 (stereo partly drawn) [Example 26, 4-[(3R)-3-methylmorpholin-4-yl]-6-[4-(1-piperidylsulfonyl)-2-(trifluoromethyl)piperazin-1-yl]-1H-pyridin-2-one]
	248	C[C@@H]1COCCN1c1cc(N2CCN(S(=O)(=O)N3CCOCC3)CC2C(F)(F)F)[nH]c(=O)c1 (stereo partly drawn) [Example 28, 4-[(3R)-3-methylmorpholin-4-yl]-6-[4-morpholinosulfonyl-2-(trifluoromethyl)piperazin-1-yl]-1H-pyridin-2-one]
< 5	84	Cc1nc(S(=O)(=O)N2CCN(c3cc(N4CCOC[C@H]4C)cc(=O)[nH]3)C(C(F)(F)F)C2)cn1C (stereo partly drawn) [Example 30, 6-[4-(1,2-Dimethylimidazol-4-yl)sulfonyl-2-(trifluoromethyl)piperazin-1-yl]-4-[(3R)-3-methylmorpholin-4-yl]-1H-pyridin-2-one]
< 5		C[C@@H]1COCCN1c1cc(N2CCN(S(=O)(=O)C3(C)CC3)CC2C(F)(F)F)[nH]c(=O)c1 (stereo partly drawn) [Example 31, 6-[4-(1-methylcyclopropyl)sulfonyl-2-(trifluoromethyl)piperazin-1-yl]-4-[(3R)-3-methylmorpholin-4-yl]-1H-pyridin-2-one]
< 5	491	C[C@@H]1COCCN1c1cc(-c2ccc(S(C)(=O)=O)cc2C(F)(F)F)[nH]c(=O)c1 [Example 33, 4-[(3R)-3-methylmorpholin-4-yl]-6-[4-methylsulfonyl-2-(trifluoromethyl)phenyl]-1H-pyridin-2-one]
< 5	458	C[C@@H]1COCCN1c1cc(-c2ccc(S(=O)(=O)N(C)C)cc2C(F)(F)F)[nH]c(=O)c1 [Example 35, N,N-dimethyl-4-[4-[(3R)-3-methylmorpholin-4-yl]-6-oxo-1H-pyridin-2-yl]-3-(trifluoromethyl)benzenesulfonamide]
